Reference: ChEMBL document CHEMBL1201862, “PubChem BioAssay data set” (2004)
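Grown in 96-well plates, cells were treated for 48 hours with each compound at five concentrations. Insufficient inhibition: endpoint recorded as highest concentration tested. GI50 marks 50% less growth.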 The source made the active and inactive calls. Rule as the data show it: active = GI50 up to about 1.1 µM and inactive = higher.

Legend:
Assay in all cases: growth of human tumour cells (NCI), 48 h
[1] = tested on: 786-0
[2] = tested on: A498
[3] = tested on: A549
[4] = tested on: ACHN
[5] = tested on: BT-549
[6] = tested on: CAKI-1
[7] = tested on: CCRF-CEM
[8] = tested on: COLO 205
[9] = tested on: DU-145
[10] = tested on: EKVX
[11] = tested on: HCC 2998
[12] = tested on: HCT-116
[13] = tested on: HCT-15
[14] = tested on: HL-60
[15] = tested on: HOP-62
[16] = tested on: HOP-92
[17] = tested on: HT-29
[18] = tested on: Hs-578T
[19] = tested on: IGROV-1
[20] = tested on: K562
[21] = tested on: KM12
[22] = tested on: LOX IMVI
[23] = tested on: M14
[24] = tested on: MCF7
[25] = tested on: MDA-MB-231
[26] = tested on: MDA-MB-435
[27] = tested on: MDA-N
[28] = tested on: MOLT-4
[29] = tested on: Malme-3M
[30] = tested on: NCI-H226
[31] = tested on: NCI-H23
[32] = tested on: NCI-H460
[33] = tested on: NCI-H522
[34] = tested on: NCI/ADR-RES
[35] = tested on: OVCAR-3
[36] = tested on: OVCAR-4
[37] = tested on: OVCAR-5
[38] = tested on: OVCAR-8
[39] = tested on: PC-3
[40] = tested on: RPMI-8226
[41] = tested on: RXF 393
[42] = tested on: SF-268
[43] = tested on: SF-295
[44] = tested on: SF-539
[45] = tested on: SK-MEL-28
[46] = tested on: SK-MEL-2
[47] = tested on: SK-MEL-5
[48] = tested on: SK-OV-3
[49] = tested on: SN12C
[50] = tested on: SNB-19
[51] = tested on: SNB-75
[52] = tested on: SR
[53] = tested on: SW-620
[54] = tested on: T47D
[55] = tested on: TK-10
[56] = tested on: U-251
[57] = tested on: UACC-257
[58] = tested on: UACC-62
[59] = tested on: UO-31

CCN(CC)CCn1ncc2c3c(=O)c4cccnc4n(CCN(CC)CC)c3ccc21
GI50 [1]: 5970 nM (inactive) | GI50 [2]: > 10000 nM (inactive) | GI50 [3]: > 10000 nM (inactive) | GI50 [4]: 5210 nM (inactive) | GI50 [5]: > 10000 nM (inactive) | GI50 [6]: > 10000 nM (inactive) | GI50 [7]: 4980 nM (inactive) | GI50 [8]: 2320 nM (inactive) | GI50 [9]: > 10000 nM (inactive) | GI50 [10]: > 10000 nM (inactive) | GI50 [11]: > 10000 nM (inactive) | GI50 [12]: 3540 nM (inactive) | GI50 [13]: 5250 nM | GI50 [14]: 8200 nM (inactive) | GI50 [15]: > 10000 nM (inactive) | GI50 [16]: > 10000 nM (inactive) | GI50 [17]: 3510 nM (inactive) | GI50 [18]: 8670 nM (inactive) | GI50 [19]: > 10000 nM (inactive) | GI50 [20]: > 10000 nM (inactive) | GI50 [21]: 6190 nM (inactive) | GI50 [22]: 5410 nM (inactive) | GI50 [23]: > 10000 nM (inactive) | GI50 [24]: 3220 nM (inactive) | GI50 [25]: > 10000 nM (inactive) | GI50 [26]: 6210 nM (inactive) | GI50 [27]: > 10000 nM (inactive) | GI50 [28]: 4390 nM (inactive) | GI50 [29]: > 10000 nM (inactive) | GI50 [30]: > 10000 nM (inactive) | GI50 [31]: > 10000 nM (inactive) | GI50 [32]: 6180 nM (inactive) | GI50 [33]: > 10000 nM (inactive) | GI50 [34]: 9180 nM (inactive) | GI50 [35]: 8110 nM (inactive) | GI50 [36]: 4440 nM (inactive) | GI50 [37]: 9120 nM (inactive) | GI50 [38]: 7930 nM (inactive) | GI50 [39]: > 10000 nM (inactive) | GI50 [40]: > 10000 nM (inactive) | GI50 [41]: > 10000 nM (inactive) | GI50 [42]: 7430 nM (inactive) | GI50 [43]: 7450 nM (inactive) | GI50 [44]: 9270 nM (inactive) | GI50 [45]: > 10000 nM (inactive) | GI50 [46]: > 10000 nM (inactive) | GI50 [47]: > 10000 nM (inactive) | GI50 [48]: > 10000 nM (inactive) | GI50 [49]: 8870 nM (inactive) | GI50 [50]: > 10000 nM (inactive) | GI50 [51]: 9660 nM (inactive) | GI50 [52]: 6980 nM (inactive) | GI50 [53]: 3770 nM (inactive) | GI50 [54]: > 10000 nM (inactive) | GI50 [55]: > 10000 nM (inactive) | GI50 [56]: > 10000 nM (inactive) | GI50 [57]: > 10000 nM (inactive) | GI50 [58]: > 10000 nM (inactive)

Nc1cc2c(c3ccccc13)C(CCl)CN2C(=O)c1cc2cc(NC(=O)c3cc4ccccc4o3)ccc2[nH]1 (stereo unspecified)
GI50 [1]: 1.21 nM (active) | GI50 [2]: 1.84 nM (active) | GI50 [3]: 0.891 nM (active) | GI50 [4]: 0.492 nM (active) | GI50 [5]: 1.26 nM (active) | GI50 [6]: 0.301 nM (active) | GI50 [7]: 1.94 nM (active) | GI50 [8]: 5.6 nM (active) | GI50 [9]: 0.679 nM (active) | GI50 [10]: 110 nM (active) | GI50 [11]: 3.07 nM (active) | GI50 [12]: 2.54 nM (active) | GI50 [13]: 3.82 nM | GI50 [14]: 0.264 nM (active) | GI50 [15]: 0.891 nM (active) | GI50 [16]: 35.7 nM (active) | GI50 [17]: 1.44 nM (active) | GI50 [18]: 16.9 nM (active) | GI50 [19]: 5.78 nM (active) | GI50 [21]: 2.96 nM (active) | GI50 [22]: 2.62 nM (active) | GI50 [23]: 4.55 nM (active) | GI50 [24]: 0.75 nM (active) | GI50 [25]: 22.1 nM (active) | GI50 [26]: 5.5 nM (active) | GI50 [27]: 8.17 nM (active) | GI50 [28]: 0.46 nM (active) | GI50 [29]: 2.13 nM (active) | GI50 [30]: 110 nM (active) | GI50 [31]: 0.551 nM (active) | GI50 [32]: 0.308 nM (active) | GI50 [33]: 0.925 nM (active) | GI50 [34]: 1.36 nM (active) | GI50 [35]: 8.85 nM (active) | GI50 [36]: 2.09 nM (active) | GI50 [37]: 7.53 nM (active) | GI50 [38]: 0.408 nM (active) | GI50 [39]: 5.13 nM (active) | GI50 [40]: 228 nM (active) | GI50 [41]: 110 nM (active) | GI50 [42]: 1.95 nM (active) | GI50 [43]: 110 nM (active) | GI50 [44]: 110 nM (active) | GI50 [45]: 12.3 nM (active) | GI50 [46]: 2.86 nM (active) | GI50 [47]: 0.787 nM (active) | GI50 [48]: 110 nM (active) | GI50 [49]: 3.45 nM (active) | GI50 [50]: 12.4 nM (active) | GI50 [51]: 2.94 nM (active) | GI50 [52]: 470 nM (active) | GI50 [53]: 4.56 nM (active) | GI50 [54]: 1.58 nM (active) | GI50 [55]: 4.29 nM (active) | GI50 [56]: 2.81 nM (active) | GI50 [57]: 6.27 nM (active) | GI50 [58]: 3.04 nM (active) | GI50 [59]: 1.28 nM (active)
